Results: patent US20230084978A1, “OPTIMIZATION OF PEPTIDE-MELANIN BINDING” (ASSITANCE PUBLIQUE - HÔPITAUX DE PARIS, priority 2020, published 2023)

Columns and labels:
[1] = Binding of peptides to synthetic melanin (Tricine-SDS-PAGE analysis); settings: for Percentage of peptide binding to melanin, Mel + peptide: L-Dopa polymerized 2 h at pH 8.5 and 60° C. before the peptide was added; for binding of the peptides to melanin (in words), SDS-page analysis: antigen added just after L-Dopa is polymerized in melanin; for Percentage of peptide binding to melanin, Peptide-Mel: peptide mixed with L-Dopa (1/4 gp100, 1/6 EphA2), then 2 hours at pH 8.5 and 60° C.
From the text: The binding of the peptide to the melanin can be verified by Tricine-SDS-PAGE analysis as described in Carpentier; 2017 (op. cit.). Briefly, samples (peptide-Mel or peptide alone) are loaded on acrylamide gels. Following electrophoresis, the gels are stained with Coomassie Brilliant Blue R-250, allowing the quantification of the free peptide in the gel. The binding of peptides to melanin can be expressed as the ratio: [amount of unbound peptide in samples Peptide-Mel/amount of peptides in control samples containing peptides alone.
Peptides were mixed with L-Dopa (weight ratio peptide/L-Dopa=1/4 and 1/6 for gp100 and EphA2, respectively) then incubated for 2 hours at pH 8.5 and 60° C. under agitation to ensure oxygenation of the solution to generate nanoparticles of melanin-bound peptides (Peptide-Mel). Alternatively, L-Dopa alone (0.8 mg/ml) was polymerized into melanin for 2 h at pH 8.5 and 60° C. under agitation, before the peptides (weight ratio peptide/L-Dopa=1/4 and 1/6 for gp100 and EphA2, respectively) were added to the solution (Mel+peptide). Tricine-SDS-PAGE analysis was performed as described in Carpentier; 2017 (op. cit.). Briefly, samples (peptide-Mel or peptide alone) were loaded on acrylamide gels. Following electrophoresis, the gels were stained with Coomassie Brilliant Blue R-250 and imaged with the ChemiDoc XRS+ system (Bio-Rad Laboratory), allowing the quantification of the free peptide in the gel. The binding of peptides to melanin was expressed as the ratio: [amount of unbound peptide in samples Peptide-Mel/amount of peptides in control samples containing peptides alone]
First column (Peptide-Mel): L-Dopa (0.8 mg/ml) was mixed with peptides (weight ratio peptide/L-Dopa=1/4) then incubated for 2 hours at pH 8.5 and 60° C. to generate nanoparticles of melanin-bound peptides. Alternatively (second column; Mel+peptide), L-Dopa alone (0.8 mg/ml) was first polymerized into melanin for 2 h at pH 8.5 and 60° C. under vigorous agitation, before the peptides (weight ratio peptide/L-Dopa=1/4) were added to the solution and incubated for 2 hours at room temperature. In both cases, the percentage of peptides that bound to melanin was then quantified with SPS-page analysis, as described in table 1. (ND=not done)
(§1) L-Dopa (0.8 mg/ml) underwent an oxidative polymerization at pH 8.5 in aerobic conditions for 2 hours at 60° C. The reaction mixture was then filtered on a 10 kDa filter, and the retentate containing the synthetic melanin was resuspended at pH 7.5 in phosphate buffer. Peptides were then added (at the weight ratio peptide/L-Dopa=1/4) and the mixture was incubated for various periods of time and or pH. The percentage of peptides that bound to melanin was then quantified with SPS-page analysis, as described in table 1. (ND=not done).
as §1, with “8.5 and 60° C.” for “8.5 in aerobic conditions”, “2 hours.” for “2 hours at 60° C.”, “of time. Binding” for “of time and or pH. The percentage”, “of the” for “of”, “peptides” for “peptides that bound to melanin”, “(ND=not done)” for “(ND=not done).”

C57BL/6 mice = assay: CTL response (IFNg-SFCs of re-stimulated splenocytes) after subcutaneous immunization; format: in vivo; settings: antigen added just after polymerization (Mel+peptide) + CpG-28, subcutaneous, 10 μg/mouse, day 8
Description: FIG. 1: CTL response after subcutaneous immunizations in 5-weeks old, C57BL/6, mice. Peptides (10 μg/mouse) were mixed with L-Dopa (weight ratio peptide/L-Dopa=1/4 and 1/6 for gp100 and EphA2 respectively) and incubated under the above described conditions (see table 1). Phosphorothioate oligonucleotide CpG-28 (5′-[…], SEQ ID NO: 21), were added to vaccine formulations (10 μg/mouse) just before the immunizations. Mice were then immunized sub-cutaneously with gp100-Mel+CpG (“gp100-Mel”), or with previously synthesized melanin mixed with gp100 and CpG (“Mel+gp100”); EphA2-Mel+CpG (“EphA2-Mel”), melanin+EphA2+CpG (“Mel+EphA2”). Mice were sacrificed on day 8 and the CTL response was performed as described in Carpentier; 2017. Briefly, splenocytes were re-stimulated in vitro with the corresponding MHC class 1-epitope (non-conjugated to melanin) and the numbers of IFNg-SFCs (Spot forming cells) were measured and expressed as Mean+/−S.E.M. (n=8 mice/group with pooled data from 2 different experiments of 4 mice each. Student-T test: gp100-Mel vs Mel+gp100: p<0.001; EphA2-Mel vs Mel+EphA2: p<0.001)
FIG. 2: CTL response after subcutaneous immunizations in C57BL/6 mice. […]

Row | Percentage of peptide binding to melanin, Mel + peptide [1] | binding of the peptides to melanin (in words), SDS-page analysis [1] | Percentage of peptide binding to melanin, Peptide-Mel [1] | Binding of peptides on synthetic melanin, Mel + peptide 10 minutes ([1]; filtered preformed melanin at pH 7.5, peptide/L-Dopa 1/4, 10 minutes) | Binding of peptides on synthetic melanin, Mel + peptide 2 hours ([1]; filtered preformed melanin at pH 7.5, peptide/L-Dopa 1/4, 2 hours) | Binding of peptides on synthetic melanin, Mel + peptide 18 hours ([1]; filtered preformed melanin at pH 7.5, peptide/L-Dopa 1/4, 18 hours) | Sequence | ability of the vaccine formulation to trigger a CTL (CD8) response (C57BL/6 mice)
1 | 9 +/− 6% | minimal binding | 93 +/− 12% |  |  |  | FSHHNIIRL (EphA2 peptide) [SEQ ID NO: 2, reference compound] | lost
2 | 23 +/− 8% | minimal binding | 100 +/− 0% | 6% | 22% | 89% | KVPRNQDWL (gp100 peptide) [SEQ ID NO: 1, reference compound] | lost
